# Test results as given in patent US7507721B2, “Macrolides with antiinflammatory activity” (Zambon Group S.p.A., priority 2004, dated 2009).
# System: PMA-induced oedema in mouse ear
# Assay: Acute contact dermatitis: inhibition of PMA/TPA-induced oedema in mouse ear
# Format: in vivo
# Settings: 6 h, CD1 mice, 500 μg/ear topical in TPDS, 30 minutes before TPA 0.01% in acetone, ear weight difference after six hours vs TPA only
# Experimental: The antiinflammatory activity has been evaluated as inhibition of PMA-induced oedema in mouse ear (Phorbol Myristate Acetate).
# A) Acute contact dermatitis.
# Groups of 5 CD1 mice (18-24 g) were used.
# All the macrolide derivatives were dissolved in the Trans-phase Delivery System (TPDS) vehicle containing 10% benzyl alcohol, 40% acetone and 50% isopropanol.
# 15 microliters of the compounds (500 μg/ear), dissolved in TPDS, were applied topically onto the inner surface of an ear; after 30 minutes 12 microliters of a solution of acetate of tetradecanoyl-phorbol (TPA) with the concentration of 0.01% dissolved in acetone were applied onto the same area.
# After six hours the animals were sacrified by inhalation of CO2.
# The oedema level was calculated by detracting the weight of a defined portion of auricular ala of the not treated ear to the one of the treated controlateral ear. To determine the oedema remission level the weight difference of the groups treated with TPA+macrolides was compared with the ones of those treated with TPA only. The activity of the macrolides was measured by using the modified method of Zunic et coll. (1998): MDL (Lysyl) GDP, a non-toxil muramyl dipeptide derivative inhibits, cytokine production by activated macrophages and protects mice from phorbol ester-and oxazolone-induced inflammation (J. Invest Dermatol., 111(1), 77-82).
# The data relating to erythromycin concern the treatment in single dose with 500 μg/ear.
smiles,measurement,value
"CC[C@H]1OC(=O)[C@H](C)[C@@H](O[C@H]2C[C@@](C)(OC)[C@@H](O)[C@H](C)O2)[C@H](C)[C@@H](O[C@@H]2O[C@H](C)C[C@H](N(C)C)[C@H]2O)[C@](C)(O)C[C@@H](C)CN(C)[C@H](C)[C@@H](O)[C@]1(C)O [Azithromycin, reference compound]",inhibition in vivo at 500 µg/ear,40%
CC[C@H]1OC(=O)[C@H](C)[C@@H](O)[C@H](C)[C@@H](O[C@@H]2O[C@H](C)C[C@H](N(C)C(=O)COCc3cc(OC)ccn3)[C@H]2O)C(C)(O)C[C@@H](C)C(O)[C@H](C)[C@@H](O)[C@]1(C)O (stereo partly drawn) [Compound 1],inhibition in vivo at 500 µg/ear,61.5%
CC[C@H]1OC(=O)[C@H](C)[C@@H](O)[C@H](C)[C@@H](O[C@@H]2O[C@H](C)C[C@H](N(C)C(=O)Cc3ccccc3)[C@H]2O)C(C)(O)C[C@@H](C)[C@H](O)[C@H](C)[C@@H](O)[C@]1(C)O (stereo partly drawn) [Compound 2],inhibition in vivo at 500 µg/ear,88.1%
CC[C@H]1OC(=O)[C@H](C)[C@@H](O)[C@H](C)[C@@H](O[C@@H]2O[C@H](C)C[C@H](N(C)C(=O)c3ccccc3)[C@H]2O)C(C)(O)C[C@@H](C)[C@H](O)[C@H](C)[C@@H](O)[C@]1(C)O (stereo partly drawn) [Compound 3],inhibition in vivo at 500 µg/ear,89.9%
CC[C@H]1OC(=O)[C@H](C)[C@@H](O)[C@H](C)[C@@H](O[C@@H]2O[C@H](C)C[C@H](N(C)C(=O)c3ccco3)[C@H]2O)C(C)(O)C[C@@H](C)[C@H](O)[C@H](C)[C@@H](O)[C@]1(C)O (stereo partly drawn) [Compound 4],inhibition in vivo at 500 µg/ear,64.4%
CC[C@H]1OC(=O)[C@H](C)[C@@H](O)[C@H](C)[C@@H](O[C@@H]2O[C@H](C)C[C@H](N(C)C(=O)Cc3cccs3)[C@H]2O)C(C)(O)C[C@@H](C)[C@H](O)[C@H](C)[C@@H](O)[C@]1(C)O (stereo partly drawn) [Compound 5],inhibition in vivo at 500 µg/ear,53.7%
CC[C@H]1OC(=O)[C@H](C)[C@@H](O)[C@H](C)[C@@H](O[C@@H]2O[C@H](C)C[C@H](N(C)C(=O)c3ccc(C)cc3)[C@H]2O)C(C)(O)C[C@@H](C)[C@H](O)[C@H](C)[C@@H](O)[C@]1(C)O (stereo partly drawn) [Compound 6],inhibition in vivo at 500 µg/ear,77.8%
CC[C@H]1OC(=O)[C@H](C)[C@@H](O)[C@H](C)[C@@H](O[C@@H]2O[C@H](C)C[C@H](N(C)C(=O)c3cccnc3)[C@H]2O)C(C)(O)C[C@@H](C)[C@H](O)[C@H](C)[C@@H](O)[C@]1(C)O (stereo partly drawn) [Compound 7],inhibition in vivo at 500 µg/ear,46.1%
CC[C@H]1OC(=O)[C@H](C)[C@@H](O)[C@H](C)[C@@H](O[C@@H]2O[C@H](C)C[C@H](N(C)C(=O)CSc3ccccc3)[C@H]2O)C(C)(O)C[C@@H](C)[C@H](O)[C@H](C)[C@@H](O)[C@]1(C)O (stereo partly drawn) [Compound 8],inhibition in vivo at 500 µg/ear,57.6%
CCCCCCCC(=O)N(C)[C@H]1C[C@@H](C)O[C@@H](O[C@@H]2[C@@H](C)[C@H](O)[C@@H](C)C(=O)O[C@H](CC)[C@@](C)(O)[C@H](O)[C@@H](C)[C@@H](O)[C@H](C)CC2(C)O)[C@@H]1O (stereo partly drawn) [Compound 9],inhibition in vivo at 500 µg/ear,74.2%
CC[C@H]1OC(=O)[C@H](C)[C@@H](O)[C@H](C)[C@@H](O[C@@H]2O[C@H](C)C[C@H](N(C)C(=O)C3CCCCC3)[C@H]2O)C(C)(O)C[C@@H](C)[C@H](O)[C@H](C)[C@@H](O)[C@]1(C)O (stereo partly drawn) [Compound 10],inhibition in vivo at 500 µg/ear,89.2%
CC[C@H]1OC(=O)[C@H](C)[C@@H](O)[C@H](C)[C@@H](O[C@@H]2O[C@H](C)C[C@H](N(C)S(C)(=O)=O)[C@H]2O)C(C)(O)C[C@@H](C)[C@H](O)[C@H](C)[C@@H](O)[C@]1(C)O (stereo partly drawn) [Compound 11],inhibition in vivo at 500 µg/ear,55.3%
CC[C@H]1OC(=O)[C@H](C)[C@@H](O)[C@H](C)[C@@H](O[C@@H]2O[C@H](C)C[C@H](N(C)S(=O)(=O)c3ccc(C)cc3)[C@H]2O)C(C)(O)C[C@@H](C)[C@H](O)[C@H](C)[C@@H](O)[C@]1(C)O (stereo partly drawn) [Compound 12],inhibition in vivo at 500 µg/ear,72.2%
CCNC(=O)N(C)[C@H]1C[C@@H](C)O[C@@H](O[C@@H]2[C@@H](C)[C@H](O)[C@@H](C)C(=O)O[C@H](CC)[C@@](C)(O)[C@H](O)[C@@H](C)[C@@H](O)[C@H](C)CC2(C)O)[C@@H]1O (stereo partly drawn) [Compound 13],inhibition in vivo at 500 µg/ear,80.3%
CC[C@H]1OC(=O)[C@H](C)[C@@H](O)[C@H](C)[C@@H](O[C@@H]2O[C@H](C)C[C@H](N(C)C(=O)Nc3ccccc3)[C@H]2O)C(C)(O)C[C@@H](C)[C@H](O)[C@H](C)[C@@H](O)[C@]1(C)O (stereo partly drawn) [Compound 14],inhibition in vivo at 500 µg/ear,89.9%
CC[C@H]1OC(=O)[C@H](C)[C@@H](O)[C@H](C)[C@@H](O[C@@H]2O[C@H](C)C[C@H](N(C)C(=O)c3ccccc3)[C@H]2O)C(C)(OC)C[C@@H](C)C(=O)[C@H](C)[C@@H](O)[C@]1(C)O (stereo partly drawn) [Compound 15],inhibition in vivo at 500 µg/ear,74.3%
CC[C@H]1OC(=O)[C@H](C)[C@@H](O)[C@H](C)[C@@H](O[C@@H]2O[C@H](C)C[C@H](N(C)C(=O)c3ccc(F)cc3)[C@H]2O)C(C)(OC)C[C@@H](C)C(=O)[C@H](C)[C@@H](O)[C@]1(C)O (stereo partly drawn) [Compound 16],inhibition in vivo at 500 µg/ear,81.1%
CC[C@H]1OC(=O)[C@H](C)[C@@H](O)[C@H](C)[C@@H](O[C@@H]2O[C@H](C)C[C@H](N(C)C(=O)C(C)(C)C)[C@H]2O)C(C)(O)C[C@@H](C)/C(=N\OC(=O)C(C)(C)C)[C@H](C)[C@@H](O)[C@]1(C)O (stereo partly drawn) [Compound 17],inhibition in vivo at 500 µg/ear,51.2%
CC[C@H]1OC(=O)[C@H](C)[C@@H](O)[C@H](C)[C@@H](O[C@@H]2O[C@H](C)C[C@H](N(C)C(C)=O)[C@H]2O)C(C)(O)C[C@@H](C)/C(=N\OC(C)=O)[C@H](C)[C@@H](O)[C@]1(C)O (stereo partly drawn) [Compound 18],inhibition in vivo at 500 µg/ear,49%
CC[C@H]1OC(=O)[C@H](C)[C@@H](O)[C@H](C)[C@@H](O[C@@H]2O[C@H](C)C[C@H](N(C)C(=O)COC)[C@H]2O)C(C)(O)C[C@@H](C)/C(=N\O)[C@H](C)[C@@H](O)[C@]1(C)O (stereo partly drawn) [Compound 19],inhibition in vivo at 500 µg/ear,86.1%
CC[C@H]1OC(=O)[C@H](C)[C@@H](O)[C@H](C)[C@@H](O[C@@H]2O[C@H](C)C[C@H](N(C)C(=O)c3ccc(OC)cc3)[C@H]2O)C(C)(O)C[C@@H](C)/C(=N\O)[C@H](C)[C@@H](O)[C@]1(C)O (stereo partly drawn) [Compound 20],inhibition in vivo at 500 µg/ear,83.2%
CC[C@H]1OC(=O)[C@H](C)[C@@H](O)[C@H](C)[C@@H](O[C@@H]2O[C@H](C)C[C@H](N(C)C(=O)c3ccc(OC)cc3)[C@H]2O)C(C)(O)C[C@@H](C)/C(=N\OC(=O)c2ccc(OC)cc2)[C@H](C)[C@@H](O)[C@]1(C)O (stereo partly drawn) [Compound 21],inhibition in vivo at 500 µg/ear,53.3%
CC[C@H]1OC(=O)[C@H](C)[C@@H](O)[C@H](C)[C@@H](O[C@@H]2O[C@H](C)C[C@H](N(C)C(=O)c3cccnc3)[C@H]2O)C(C)(O)C[C@@H](C)/C(=N\O)[C@H](C)[C@@H](O)[C@]1(C)O (stereo partly drawn) [Compound 22],inhibition in vivo at 500 µg/ear,74.3%
CC[C@H]1OC(=O)[C@H](C)[C@@H](O)[C@H](C)[C@@H](O[C@@H]2O[C@H](C)C[C@H](N(C)C(=O)c3cccs3)[C@H]2O)C(C)(O)C[C@@H](C)/C(=N\O)[C@H](C)[C@@H](O)[C@]1(C)O (stereo partly drawn) [Compound 23],inhibition in vivo at 500 µg/ear,86.8%
CC[C@H]1OC(=O)[C@H](C)[C@@H](O)[C@H](C)[C@@H](O[C@@H]2O[C@H](C)C[C@H](N(C)C(=O)c3cccs3)[C@@H]2O)[C@](C)(O)C[C@H](C)/C(=N\OC(=O)c2cccs2)[C@@H](C)[C@H](O)[C@]1(C)O [Compound 24],inhibition in vivo at 500 µg/ear,41.3%
CC[C@H]1OC(=O)[C@H](C)[C@@H](O)[C@H](C)[C@@H](O[C@@H]2O[C@H](C)C[C@H](N(C)C(=O)Cc3cccs3)[C@H]2O)C(C)(O)C[C@@H](C)/C(=N\O)[C@H](C)[C@@H](O)[C@]1(C)O (stereo partly drawn) [Compound 25],inhibition in vivo at 500 µg/ear,79.3%
CC[C@H]1OC(=O)[C@H](C)[C@@H](O)[C@H](C)[C@@H](O[C@@H]2O[C@H](C)C[C@H](N(C)C(=O)C(C)(C)C)[C@H]2O)C(C)(O)C[C@@H](C)/C(=N\O)[C@H](C)[C@@H](O)[C@]1(C)O (stereo partly drawn) [Compound 26],inhibition in vivo at 500 µg/ear,68.6%
CC[C@H]1OC(=O)[C@H](C)[C@@H](O)[C@H](C)[C@@H](O[C@@H]2O[C@H](C)C[C@H](N(C)C(=O)Cc3cccs3)[C@H]2O)C(C)(O)C[C@@H](C)/C(=N\OC(=O)Cc2cccs2)[C@H](C)[C@@H](O)[C@]1(C)O (stereo partly drawn) [Compound 27],inhibition in vivo at 500 µg/ear,61.4%
CC[C@H]1OC(=O)[C@H](C)[C@@H](O)[C@H](C)[C@@H](O[C@@H]2O[C@H](C)C[C@H](N(C)C(=O)c3cccnc3Cl)[C@H]2O)C(C)(O)C[C@@H](C)/C(=N\O)[C@H](C)[C@@H](O)[C@]1(C)O (stereo partly drawn) [Compound 28],inhibition in vivo at 500 µg/ear,81.7%
"CC[C@H]1OC(=O)[C@H](C)[C@@H](O[C@H]2C[C@@](C)(OC)[C@@H](O)[C@H](C)O2)[C@H](C)[C@@H](O[C@@H]2O[C@H](C)C[C@H](N(C)C)[C@H]2O)[C@](C)(O)C[C@@H](C)C(=O)[C@H](C)[C@@H](O)[C@]1(C)O [Erythromycin, reference compound]",inhibition in vivo at 500 µg/ear,42.5%
